{"source": "patent EP2329817A1", "about": "“Retinoic acid receptor antagonists, miR-10a inhibitors and inhibitors of HOXB1 or HOXB3 repressors for treating pancreatic cancer” (Ernst-Moritz-Arndt-Universität Greifswald, priority 2009, dated 2011)", "key": {"PaTu-S cells": {"tested_on": "PaTu-S cells", "assay": "Zebrafish embryo xenotransplantation: invasion and metastatic behaviour of pretreated PaTu-S cells", "type": "in vivo, human", "description": "(§1) Zebrafish (Danio rerio) (Tuebingen line, AIB strain (Albinos) and Tg (fli1:eGFP) were handled in compliance with local animal care regulations and standard protocols of the Netherlands and Germany. Fish were kept at 28°C in aquaria with day/night light cycles (10 h dark versus 14 h light periods). The developing embryos were kept in an incubator at constant temperatures.\n(§2) The selective RARα antagonist Ro-41-5253 was purchased from Biomol International, dissolved in DMSO and cells were treated overnight prior to injections at a final concentration of 200 nM (50% inhibition at 60nM)^14,15. Retinoic acid (ATRA, Sigma) was added to cells ON at a final concentration of 1 µM.\n(§3) Cells were stained with CM-Dil (red fluorescence) at a 1:1000 dilution according to the manufacturers protocol (Vybrant, Invitrogen). Cells were suspended in 67% DPBS for injection into embryos. 2dpf zebrafish embryos were dechorionated and tranquilized with tricaine (Sigma). An injection needle (15µm diameter) with a manual injector (Eppendorf; Celltram Vario) was used to inject ∼200 cells into the yolk sac of 2dpf zebrafish embryos. On average 80 embryos were injected for each treatment and embryos with detectable cell scatter 2 h after the transfer (and therefore presumably due to the transfer procedure) were excluded from further analysis. Presence of cells was checked after 2 h incubation at 31°C and embryos were subsequently kept at 35°C. We defined metastasis based on the number of fluorescent cells that were detected outside the yolk sac 2 days after the transfer. Presence of 5 or more cells was considered \"metastasised\" and percentages of metastasised fish in each experiment were counted. The occurence of micro-metastasis is indicated by cell clusters of ≥4 cells presumably originating from cell division. PaTu-S cells and ASPC1 cells were transfected ON with indicated concentrations of miR-10a siRNA in the presence of ICA-Fectin TM442 (Eurogentec, Belgium). Whole cell lysates were prepared 36h post-transfection and 40 µg of total lysates were separated on 7.5% PAA-gels and blotted with anti E-cadherin, α-catenin, β-catenin (all mAbs, Transduction Labs) and actin antibodies (mAb Sigma-Aldrich, Germany).\n(§4) Morpholino antisense oligonucleotides were obtained from Gene Tools, LLC (OR, USA) and used as previously described^19. The miR-10a antisense Morpholino sequence is: […]. Standard control Morpholino was […]. Both miR-10a and control Morpholinos were fluorescein labeled. The siRNAs for human HOXB1, human HOXB3 and human RARα were purchased from Santa Cruz Biotechnology (HOXB1: sc-38686, HOXB3: sc-38690 and RARα: sc-29465). EndoPorter (Gene Tools, LLC) was used to deliver Morpholinos and siRNAs into cells and efficiencies for Morpholinos were checked by fluorescence microscopy to be >98%. For the miR-10a siRNA, the sense strand corresponds to […]. The sequence of control siRNA (miR-196a) was […] with the corresponding antisense sequence). 30 µl of each siRNA oligo (50 µM) were annealed by gradually cooling from 98°C to 20°C in a volume of 75 µl annealing buffer (50 mM Tris, pH 7.8, 100 mM NaCl RNAse free). The effect of miR-10a Morpholinos on miR-10a function was tested with a sensor construct: pCS2+ EGFP 4x miR-10 AS containing 4 copies of a miR-10a antisense sequence."}, "PaTu-T cells [1]": {"tested_on": "PaTu-T cells", "assay": "Cell survival and cell cycle distribution by propidium iodine staining (FACS)", "type": "cell-based, human", "from_the_text": "Targeting endogenous miR-10a with Morpholinos rendered PaTu-T-cells non-invasive and prevented metastatic behaviour in zebrafish embryos, whereas a control Morpholino had no such effect (Fig.4 B, Table1 and Supplemental Table 1). […] (analysed by propidium iodine (PI) staining, data not shown).\nWe used the selective RARα antagonist Ro-41-5253; to analyze its anti-migratory activity in an in vitro migration assay (\"scratch assay\") and in the zebrafish xenotransplantation model, respectively. […] Similar results were obtained when PaTu-T cells were treated with RAR -specific siRNAs (Supplemental Table 1 and Supplemental Fig. 1).\nSupplemental Figure 3: Cell cycle analysis of RARα siRNA or Ro-415253 treated PaTu-T cells. Cells were treated with either DMSO control (A), RARα siRNA (B) or 200 nM Ro-415253 (C) and fixed after 24h with 70% EtOH. Following propidium iodine (PI) staining the cells were analysed by a LSR2 FACS sorter (Becton Dickinson). […] Gate P2 indicates cells in G0/1 phase, gate 3 represents cells in S phase and gate 4 represents Cells in M/G2 phase."}, "PaTu-T cells [2]": {"tested_on": "PaTu-T cells", "assay": "Zebrafish embryo xenotransplantation: invasion and metastatic behaviour of pretreated PaTu-T cells", "type": "in vivo, human", "description": "as §1, §2, §3, §4"}, "[3]": {"details": "Experiment 1, number of embryos (equals the Day 1 total)"}, "[4]": {"details": "Experiment 1, Day 1, number of embryos"}, "[5]": {"details": "Experiment 1, Day 2, number of embryos"}, "[6]": {"details": "Experiment 1, Day 3, number of embryos"}, "[7]": {"details": "Experiment 1, summary line, percentage in brackets (of embryos alive)"}, "[8]": {"details": "Experiment 2, number of embryos (equals the Day 1 total)"}, "[9]": {"details": "Experiment 2, Day 1, number of embryos"}, "[10]": {"details": "Experiment 2, Day 2, number of embryos"}, "[11]": {"details": "Experiment 2, Day 3, number of embryos"}, "[12]": {"details": "Experiment 2, summary line, percentage in brackets (of embryos alive)"}}, "note": "“And” between values parts separate entries of the source, which are not always exact repeats. Equal values may be shown once."}
{"compound": "CC1=C(/C=C/C(C)=C/C=C/C(C)=C/C(=O)O)C(C)(C)CCC1", "note": "[RA, all trans retinoic acid]", "values": [{"measurement": "total >5", "setting": "PaTu-S cells; [3]", "value": 14}, {"measurement": "Migration 5 to 20", "setting": "PaTu-S cells; [4]", "value": 11}, {"measurement": "Migration <5", "setting": "PaTu-S cells; [4]", "value": 1}, {"measurement": "Migration >20", "setting": "PaTu-S cells; [4]", "value": 3}, {"measurement": "total >5", "setting": "PaTu-S cells; [4]", "value": 14}, {"measurement": "Migration 5 to 20", "setting": "PaTu-S cells; [5]", "value": 10}, {"measurement": "Migration <5", "setting": "PaTu-S cells; [5]", "value": 0}, {"measurement": "Migration >20", "setting": "PaTu-S cells; [5]", "value": 4}, {"measurement": "total >5", "setting": "PaTu-S cells; [5]", "value": 14}, {"measurement": "Migration 5 to 20", "setting": "PaTu-S cells; [6]", "value": 19}, {"measurement": "Migration <5", "setting": "PaTu-S cells; [6]", "value": 0}, {"measurement": "Migration >20", "setting": "PaTu-S cells; [6]", "value": 3}, {"measurement": "total >5", "setting": "PaTu-S cells; [6]", "value": 12}, {"measurement": "total >5", "setting": "PaTu-S cells; [7]", "value": 24.1, "unit": "%"}, {"measurement": "total >5", "setting": "PaTu-S cells; [8]", "value": 20}, {"measurement": "Migration 5 to 20", "setting": "PaTu-S cells; [9]", "value": 15}, {"measurement": "Migration <5", "setting": "PaTu-S cells; [9]", "value": 1}, {"measurement": "Migration >20", "setting": "PaTu-S cells; [9]", "value": 5}, {"measurement": "total >5", "setting": "PaTu-S cells; [9]", "value": 20}, {"measurement": "Migration 5 to 20", "setting": "PaTu-S cells; [10]", "value": 13}, {"measurement": "Migration <5", "setting": "PaTu-S cells; [10]", "value": 1}, {"measurement": "Migration >20", "setting": "PaTu-S cells; [10]", "value": 4}, {"measurement": "total >5", "setting": "PaTu-S cells; [10]", "value": 17}, {"measurement": "Migration 5 to 20", "setting": "PaTu-S cells; [11]", "value": 12}, {"measurement": "Migration <5", "setting": "PaTu-S cells; [11]", "value": 1}, {"measurement": "Migration >20", "setting": "PaTu-S cells; [11]", "value": 5}, {"measurement": "total >5", "setting": "PaTu-S cells; [11]", "value": 17}, {"measurement": "total >5", "setting": "PaTu-S cells; [12]", "value": 31.2, "unit": "%"}, {"measurement": "Average % (observed metastasised embryos)", "setting": "PaTu-S cells; Table 1, pretreated PaTu-S cells transplanted into zebrafish embryos, average of 2-4 experiments", "value": 27.7, "unit": "%"}, {"measurement": "%migration, Average", "setting": "PaTu-S cells; average of experiments, PaTu-S", "value": 27.7, "unit": "%"}, {"measurement": "%migration", "setting": "PaTu-S cells; single experiments, PaTu-S", "value": "24.1% and 31.2%"}]}
{"compound": "CCCCCCCOc1cc2c(cc1/C(C)=C/c1ccc(C(=O)O)cc1)C(C)(C)CCS2(=O)=O", "note": "[Ro-41-5253, Benzoic acid, 4-(2-(7-(heptyloxy)-3,4-dihydro-4,4-dimethyl-2H-1-benzothiopyran-6-yl)-1-propenyl)-, S,S-dioxide, (E)]", "values": [{"measurement": "cell cycle distribution", "setting": "PaTu-T cells [1]; 24h, Ro-415253 at 200 nM, PI staining, FACS", "value": "No differences"}, {"measurement": "general cell survival", "setting": "PaTu-T cells [1]; propidium iodine (PI) staining", "value": "no adverse affects"}, {"measurement": "total >5", "setting": "PaTu-T cells [2]; [3]", "value": 1}, {"measurement": "Migration 5 to 20", "setting": "PaTu-T cells [2]; [4]", "value": 1}, {"measurement": "Migration <5", "setting": "PaTu-T cells [2]; [4]", "value": 0}, {"measurement": "Migration >20", "setting": "PaTu-T cells [2]; [4]", "value": 0}, {"measurement": "total >5", "setting": "PaTu-T cells [2]; [4]", "value": 1}, {"measurement": "Migration 5 to 20", "setting": "PaTu-T cells [2]; [5]", "value": 0}, {"measurement": "Migration <5", "setting": "PaTu-T cells [2]; [5]", "value": 0}, {"measurement": "Migration >20", "setting": "PaTu-T cells [2]; [5]", "value": 0}, {"measurement": "total >5", "setting": "PaTu-T cells [2]; [5]", "value": 0}, {"measurement": "Migration 5 to 20", "setting": "PaTu-T cells [2]; [6]", "value": 0}, {"measurement": "Migration <5", "setting": "PaTu-T cells [2]; [6]", "value": 0}, {"measurement": "Migration >20", "setting": "PaTu-T cells [2]; [6]", "value": 0}, {"measurement": "total >5", "setting": "PaTu-T cells [2]; [6]", "value": 0}, {"measurement": "total >5", "setting": "PaTu-T cells [2]; [7]", "value": 1.4, "unit": "%"}, {"measurement": "total >5", "setting": "PaTu-T cells [2]; [8]", "value": 2}, {"measurement": "Migration 5 to 20", "setting": "PaTu-T cells [2]; [9]", "value": 2}, {"measurement": "Migration <5", "setting": "PaTu-T cells [2]; [9]", "value": 0}, {"measurement": "Migration >20", "setting": "PaTu-T cells [2]; [9]", "value": 0}, {"measurement": "total >5", "setting": "PaTu-T cells [2]; [9]", "value": 2}, {"measurement": "Migration 5 to 20", "setting": "PaTu-T cells [2]; [10]", "value": 2}, {"measurement": "Migration <5", "setting": "PaTu-T cells [2]; [10]", "value": 0}, {"measurement": "Migration >20", "setting": "PaTu-T cells [2]; [10]", "value": 0}, {"measurement": "total >5", "setting": "PaTu-T cells [2]; [10]", "value": 2}, {"measurement": "Migration 5 to 20", "setting": "PaTu-T cells [2]; [11]", "value": 0}, {"measurement": "Migration <5", "setting": "PaTu-T cells [2]; [11]", "value": 0}, {"measurement": "Migration >20", "setting": "PaTu-T cells [2]; [11]", "value": 0}, {"measurement": "total >5", "setting": "PaTu-T cells [2]; [11]", "value": 0}, {"measurement": "total >5", "setting": "PaTu-T cells [2]; [12]", "value": 2.9, "unit": "%"}, {"measurement": "Average % (observed metastasised embryos)", "setting": "PaTu-T cells [2]; Table 1, pretreated PaTu-T cells transplanted into zebrafish embryos, average of 2-4 experiments", "value": 2.2, "unit": "%"}, {"measurement": "%migration, Average", "setting": "PaTu-T cells [2]; average of experiments, PaTu-T", "value": 2.2, "unit": "%"}, {"measurement": "%migration", "setting": "PaTu-T cells [2]; single experiments, PaTu-T, listed as RARαinhibitor", "value": "1.4% and 2.9%"}]}
